What follows are compounds tested against T1, HIF-2α HIS TAG-PASB Domain (Homo sapiens, UniProt Q99814) (assay: HIF-2α Scintillation Proximity Assay (SPA)). Conditions: Scintillation Proximity Assay IC50 (nM).
T1 construct: 100 nM HIF-2α HIS TAG-PASB Domain
T1 sequence (Q99814 240-350 limits assumed): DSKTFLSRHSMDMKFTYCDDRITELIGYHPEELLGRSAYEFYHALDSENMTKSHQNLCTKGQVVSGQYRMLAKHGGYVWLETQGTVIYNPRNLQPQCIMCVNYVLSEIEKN
Assay type: binding
Description: The total assay volume was about 100 μL in the following configuration: 2 μL compound in 100% DMSO, 88 μL buffer with protein and probe and 10 μL of SPA beads. […] The percent inhibition was determined and IC50 values were calculated using the Dotmatics system based on the following equation: % inhibition=[(high control−sample)/(high control−low control)]×100.
`O=S(=O)(c1ccc(Oc2cc(F)cc(Cl)c2)c(Br)c1)C(F)(F)F` [Compound 116] gave an IC50 of 50 to 249 nM. `N#Cc1cc(S(=O)(=O)C(F)(F)F)ccc1Oc1cc(F)cc(Cl)c1` [Compound 119] was tested, and the IC50 was 50 to 249 nM. `COC(=O)c1cc(S(=O)(=O)C(F)(F)F)ccc1Oc1cc(F)cc(Cl)c1` [Compound 121] was tested, and the IC50 was over 1000 nM. Work on `O=S(=O)(c1ccc(Oc2cc(F)cc(Cl)c2)c(CO)c1)C(F)(F)F` [Compound 122] yielded an IC50 of over 1000 nM. `O=Cc1cc(S(=O)(=O)C(F)(F)F)ccc1Oc1cc(F)cc(Cl)c1` [Compound 123] gave an IC50 of under 50 nM. For `NC(=O)c1cc(S(=O)(=O)C(F)(F)F)ccc1Oc1cc(F)cc(Cl)c1` [Compound 125], the IC50 was over 1000 nM. `O=S(=O)(c1ccc(Oc2cc(F)cc(Cl)c2)c(Cl)c1)C(F)(F)F` [Compound 128] was tested, and the IC50 was 50 to 249 nM. With `CS(=O)(=O)c1ccc(Oc2cc(F)cc(Cl)c2)c(Br)c1` [Compound 138] the IC50 was over 1000 nM. `CS(=O)(=O)c1ccc(Oc2cc(F)cc(C#N)c2)c2c1C(O)C(F)(F)CC2` (centres unmarked) [Compound 181] gave an IC50 of over 1000 nM.

Same assay, conditions: read-out: Scintillation Proximity Assay IC50
Compound `N#Cc1cncc(Oc2ccc(S(=O)(=O)C(F)F)c3c2CC[C@H]3O)c1` [Compound 4] has an IC50 of over 1000 nM. In the case of `C=CCC1(O)c2c(S(=O)(=O)C(F)F)ccc(Oc3cc(F)cc(F)c3)c2CC1(F)F` (centres unmarked) [Compound 12], the IC50 is reported as over 1000 nM. In the case of `CC1(O)c2c(S(=O)(=O)C(F)F)ccc(Oc3cc(F)cc(C#N)c3)c2CC1(F)F` (centres unmarked) [Compound 13], the IC50 is reported as over 1000 nM. With `N#CCS(=O)(=O)c1ccc(Oc2cc(F)cc(F)c2)c2c1C(O)CC2` (centres unmarked) [Compound 14] the IC50 was over 1000 nM. With `NC1CCc2c(Oc3cc(F)cc(F)c3)ccc(S(=O)(=O)C(F)F)c21` (centres unmarked) [Compound 19] the IC50 was over 1000 nM. With `O=S(=O)(c1ccc(Oc2cc(F)cc(F)c2)c2c1C(CO)CC2)C(F)F` (centres unmarked) [Compound 24] the IC50 was 250 to 1000 nM. `N#Cc1c(Oc2cc(F)cc(Cl)c2)ccc(S(=O)(=O)C(F)(F)F)c1Cl` [Compound 28] gave an IC50 of over 1000 nM. `N#Cc1cc(F)cc(Oc2ccc(S(=O)(=O)C(F)(F)F)c(Cl)c2C#N)c1` [Compound 29] showed an IC50 of under 50 nM. With `CN(C)Cc1c(S(=O)(=O)C(F)F)ccc(Oc2cc(F)cc(Cl)c2)c1C#N` [Compound 36] the IC50 was over 1000 nM. In the case of `Cc1c([S+]([O-])C(F)F)ccc(Oc2cc(F)cc(Cl)c2)c1C#N` (centres unmarked) [Compound 37], the IC50 is reported as over 1000 nM. Work on `O=S(=O)(c1ccc(Oc2cc(F)cc(Cl)c2)c(Cl)c1Cn1ccnc1)C(F)F` [Compound 45] yielded an IC50 of over 1000 nM. `O=S(=O)(c1ccc(Oc2cc(F)cc(Cl)c2)c(Cl)c1CNCC(F)(F)F)C(F)F` [Compound 47] gave an IC50 of over 1000 nM. `O=S(=O)(c1ccc(Oc2cc(F)cc(Cl)c2)c(Cl)c1CNC1CCOCC1)C(F)F` [Compound 48] showed an IC50 of 250 to 1000 nM. `O=S(=O)(c1ccc(Oc2cc(F)cc(Cl)c2)c(Cl)c1CNC1CCCOC1)C(F)F` (centres unmarked) [Compound 49] showed an IC50 of over 1000 nM. `Cc1c(S(C)(=O)=O)ccc(Oc2cc(F)cc(C#N)c2)c1C#N` [Compound 51] gave an IC50 of over 1000 nM. `N#Cc1ccc(Oc2cc(F)cc(F)c2)c2c1[C@H](O)CC2` [Compound 66] gave an IC50 of over 1000 nM. Work on `CS(=O)(=NC#N)c1ccc(Oc2cc(F)cc(C#N)c2)c2c1C(O)CC2` (centres unmarked) [Compound 68] yielded an IC50 of over 1000 nM. `N=S(=O)(c1ccc(Oc2cc(F)cc(Cl)c2)c(Br)c1)C(F)F` (centres unmarked) [Compound 69] showed an IC50 of over 1000 nM. In the case of `CN=S(=O)(c1ccc(Oc2cc(F)cc(Cl)c2)c(Br)c1)C(F)F` (centres unmarked) [Compound 70], the IC50 is reported as 250 to 1000 nM. With `N=S(=O)(c1ccc(Oc2cc(F)cc(Cl)c2)c(Br)c1)C(F)(F)F` (centres unmarked) [Compound 71] the IC50 was 250 to 1000 nM. `N#Cc1cc(S(=N)(=O)C(F)(F)F)ccc1Oc1cc(F)cc(Cl)c1` (centres unmarked) [Compound 72] was tested, and the IC50 was 250 to 1000 nM. In the case of `N#Cc1cc(F)cc(Oc2ccc(S(=N)(=O)C(F)(F)F)cc2C#N)c1` (centres unmarked) [Compound 73], the IC50 is reported as over 1000 nM. Work on `N#Cc1c(S(=O)(=O)C(F)F)ccc(Oc2cc(F)cc(Cl)c2)c1Br` [Compound 76] yielded an IC50 of 250 to 1000 nM. Work on `N#Cc1cc(F)cc(Oc2ccc(S(=O)(=O)C(F)F)c(C#N)c2Br)c1` [Compound 77] yielded an IC50 of over 1000 nM. `CC(=O)c1c(S(=O)(=O)C(F)(F)F)ccc(Oc2cc(F)cc(C#N)c2)c1C#N` [Compound 79] showed an IC50 of over 1000 nM. For `COC(=O)c1c([S+]([O-])C(F)F)ccc(Oc2cc(F)cc(Cl)c2)c1Br` (centres unmarked) [Compound 82], the IC50 was over 1000 nM. `CC(C)(C)OC(=O)NCc1c(S(=O)(=O)C(F)F)ccc(Oc2cc(F)cc(Cl)c2)c1Br` [Compound 83] was tested, and the IC50 was over 1000 nM. Work on `O=S(=O)(c1ccc(Oc2cc(F)cc(Cl)c2)c(CO)c1CO)C(F)F` [Compound 87] yielded an IC50 of over 1000 nM. For `O=S(=O)(c1ccc(Oc2cc(F)cc(Cl)c2)c2c1COC2O)C(F)F` (centres unmarked) [Compound 88], the IC50 was over 1000 nM. Compound `O=S(=O)(c1ccc(Oc2cccc(C(F)(F)F)c2)c(Br)c1CO)C(F)F` [Compound 89] has an IC50 of over 1000 nM. `CS(=O)(=O)c1ccc(Oc2cc(F)cc(C#N)c2)c2c1C(O)CCC2` (centres unmarked) [Compound 95] showed an IC50 of over 1000 nM. `N#Cc1c(I)ccc(Oc2cc(F)cc(Cl)c2)c1Br` [Compound 96] showed an IC50 of over 1000 nM. `Fc1cc(Cl)cc(Oc2ccc(C(F)(F)F)c(Cl)c2Br)c1` [Compound 97] gave an IC50 of over 1000 nM. In the case of `N#Cc1c(Oc2cc(F)cc(Cl)c2)ccc(S(=O)(=O)C(F)(F)F)c1C(=O)O` [Compound 105], the IC50 is reported as over 1000 nM. `C/C(=N\O)c1c(S(=O)(=O)C(F)(F)F)ccc(Oc2cc(F)cc(Cl)c2)c1Br` [Compound 106] was tested, and the IC50 was 250 to 1000 nM. With `O=S(=O)(c1ccc(Oc2cc(F)cc(Cl)c2)c(Br)c1CNCCO)C(F)(F)F` [Compound 108] the IC50 was over 1000 nM. `CNCc1c(S(=O)(=O)C(F)(F)F)ccc(Oc2cc(F)cc(Cl)c2)c1Br` [Compound 109] gave an IC50 of over 1000 nM. `CNCc1c(S(=O)(=O)C(F)(F)F)ccc(Oc2cc(F)cc(Cl)c2)c1Cl` [Compound 113] was tested, and the IC50 was over 1000 nM. For `O=S(=O)(c1ccc(Oc2cc(F)cc(Cl)c2)c(CCCO)c1)C(F)(F)F` [Compound 126], the IC50 was over 1000 nM. `O=S(=O)(c1ccc(Oc2cc(F)cc(Cl)c2)c(CCO)c1)C(F)(F)F` [Compound 127] was tested, and the IC50 was over 1000 nM. In the case of `O=S(=O)(c1cc(C(F)(F)F)ccc1Oc1cc(F)cc(Cl)c1)C(F)(F)F` [Compound 129], the IC50 is reported as over 1000 nM. `C=CS(=O)(=O)c1ccc(Oc2cc(F)cc(Cl)c2)c(Br)c1` [Compound 130] was tested, and the IC50 was over 1000 nM. `O=S(=O)(CF)c1ccc(Oc2cc(F)cc(Cl)c2)c(Br)c1` [Compound 137] was tested, and the IC50 was 250 to 1000 nM. In the case of `CS(=O)(=O)c1ccc(Oc2cc(F)cc(Cl)c2)c(C#N)c1` [Compound 139], the IC50 is reported as over 1000 nM. `Cc1c(Oc2cc(F)cc(C#N)c2)ccc(S(=O)(=O)C(F)(F)F)c1Br` [Compound 141] was tested, and the IC50 was 50 to 249 nM. For `Cc1c(Oc2cc(F)cc(C#N)c2)ccc(S(=O)(=O)C(F)(F)F)c1C#CCO` [Compound 142], the IC50 was over 1000 nM. With `Cc1c(Oc2cc(F)cc(C#N)c2)ccc(S(=O)(=O)C(F)(F)F)c1/C=C/C(=O)NCc1ccccc1` [Compound 149] the IC50 was over 1000 nM. `Cc1c(Oc2cc(F)cc(C#N)c2)ccc(S(=O)(=O)C(F)(F)F)c1/C=C/c1nnco1` [Compound 150] showed an IC50 of over 1000 nM. `N#Cc1c(Oc2cc(F)cc(Cl)c2)ccc(S(=O)(=O)C(F)(F)F)c1NCCO` [Compound 154] was tested, and the IC50 was over 1000 nM. `O=S(=O)(c1ccc(Oc2ccc(Cl)c(Cl)c2)c(Br)c1)C(F)(F)F` [Compound 169] gave an IC50 of over 1000 nM. Compound `O=S(=O)(c1ccc(Oc2cc(Cl)ccc2F)c(Br)c1)C(F)(F)F` [Compound 170] has an IC50 of over 1000 nM. Compound `Cc1c(Cl)cccc1Oc1ccc(S(=O)(=O)C(F)(F)F)cc1Br` [Compound 171] has an IC50 of over 1000 nM. Compound `Cc1cc(C)cc(Oc2ccc(S(=O)(=O)C(F)(F)F)cc2Br)c1` [Compound 173] has an IC50 of over 1000 nM. `Cc1ccc(Cl)cc1Oc1ccc(S(=O)(=O)C(F)(F)F)cc1Br` [Compound 174] gave an IC50 of over 1000 nM. Compound `O=S(=O)(c1ccc(Oc2ccc(F)cc2F)c(Br)c1)C(F)(F)F` [Compound 175] has an IC50 of over 1000 nM. `O=S(=O)(c1ccc(Oc2c(F)cccc2F)c(Br)c1)C(F)(F)F` [Compound 176] showed an IC50 of over 1000 nM. `O=S(=O)(c1ccc(Oc2cc(F)cc(CO)c2)c(Br)c1)C(F)(F)F` [Compound 177] was tested, and the IC50 was over 1000 nM. `C/C=C/c1c(S(=O)(=O)C(F)F)ccc(Oc2cc(F)cc(C#N)c2)c1C#N` [Compound 178] showed an IC50 of 250 to 1000 nM. Compound `CS(=N)(=O)c1ccc(Oc2cc(F)cc(Cl)c2)c(C#N)c1Cl` (centres unmarked) [Compound 180] has an IC50 of over 1000 nM. `O=S(=O)(c1ccc(Oc2cncc(Cl)c2)c2c1[C@H](O)CC2)C(F)(F)F` [Compound 184] showed an IC50 of 250 to 1000 nM. `CS(=O)(=NC#N)c1ccc(Oc2cc(F)cc(F)c2)c2c1C(O)CC2` (centres unmarked) [Compound 189] was tested, and the IC50 was over 1000 nM. For `O=C1c2c(S(=O)(=O)C(F)F)ccc(Oc3ccc(F)c(Br)c3)c2CC1(F)F` [Compound 193], the IC50 was 250 to 1000 nM. Work on `Cc1cc(Oc2ccc(S(=O)(=O)C(F)F)c3c2CC(F)(F)C3=O)ccc1F` [Compound 197] yielded an IC50 of 250 to 1000 nM. Compound `N#Cc1cc(Oc2ccc(S(=O)(=O)C(F)F)c3c2CC(F)(F)C3=O)ccc1F` [Compound 199] has an IC50 of over 1000 nM. `O=[N+]([O-])c1c(Oc2cccc(Cl)c2)ccc(C(F)(F)F)c1Cl` [Compound 204] gave an IC50 of 50 to 249 nM. `CCS(=O)(=O)c1ccc(Oc2cc(F)cc(C#N)c2)c2c1C(O)CC2` (centres unmarked) [Compound 205] showed an IC50 of over 1000 nM. `N#Cc1cc(F)cc(Oc2ccc(S(=O)(=O)C3CCC3)c3c2CCC3O)c1` (centres unmarked) [Compound 208] was tested, and the IC50 was over 1000 nM. For `CO[C@H]1c2c(S(C)(=O)=O)ccc(Oc3cc(F)cc(C#N)c3)c2CC1(F)F` [Compound 210], the IC50 was over 1000 nM. `CNS(=O)(=O)c1ccc(Oc2cc(F)cc(F)c2)c2c1C(O)CC2` (centres unmarked) [Compound 211] was tested, and the IC50 was over 1000 nM. Compound `N#Cc1cc(Oc2ccc(S(=O)(=O)C(F)(F)F)c3c2CCC3O)ccc1F` (centres unmarked) [Compound 216] has an IC50 of over 1000 nM. Compound `CS(=O)(=O)c1ccc(Oc2cc(F)cc(C#N)c2)c2c1C(O)C1(CC1)C2` (centres unmarked) [Compound 217] has an IC50 of over 1000 nM. `CS(=O)(=O)c1cc(F)c(Oc2cc(F)cc(C#N)c2)c2c1C(O)C(F)(F)C2` (centres unmarked) [Compound 219] showed an IC50 of over 1000 nM. `O=S(=O)(c1ccc(Oc2ccc3[nH]ncc3c2)c2c1C(O)C(F)(F)C2)C(F)(F)F` (centres unmarked) [Compound 238] showed an IC50 of over 1000 nM. Compound `O=S(=O)(CF)c1ccc(Oc2cccc3sccc23)c2c1C(O)CC2` (centres unmarked) [Compound 239] has an IC50 of over 1000 nM.
